The numbers were not newly measured in US6756428B2, “Degradable plastics possessing a microbe-inhibiting quality” (Seefar Technologies, Incorporated, priority 1999, dated 2004), which cites them from elsewhere.

The test system of series [1] is Staphylococcus aureus bacteria.
Series [2] has as its system Pseudomonas aeruginosa bacteria. To be noted: bacterium P aeruginosa.

Converted amounts (≈) assume the structure as drawn. Where two headings read alike, the source gives them in different places. Where only a bound is given, the exact number is not on record here.

Consider `Cc1ccc(S(=O)(=O)C(I)I)cc1` [DIMTS, diiodomethyl-p-tolylsulphone], for which the MIC result in series [1] (against Staphylococcus aureus bacteria) is listed as “about 50 mg/L”. Also, the solubility in acetone (acetone, 25° C.) is 350 mg/mL (≈ 829 mM). In addition, under “25° C.”, the solubility in ethanol is 20 mg/mL (≈ 47.4 mM) and the solubility in water was 0.0001 mg/mL (≈ 0.000237 mM). In addition, in the series on fungus Aspergillus niger (against the fungus Aspergillus niger), the MIC result is recorded as “about 5 mg/L”.
Turning to `Oc1cc(Cl)ccc1Oc1ccc(Cl)cc1Cl` [triclosan, 2,4,4″-trichloro-2-hydroxydiphenylether], the “solubility in ethanol” value is listed as “soluble” and the “solubility in water” value is reported as “insoluble”. Also, the MIC entry in series [1] (against S. aureus) was “about 0.01 ppm”. In addition, in the series with dogs, the LD50 oral toxicity is above 5000 mg/kg. For the same compound, where the note is “dilute alkali solution”, the “solubility in dilute alkali solution” value is on record as “sparingly soluble”. The MIC entry in series [2] was “about 100 ppm”. Further, the MIC result in the series with fungus Aspergillus niger (against A. niger) is “about 100 ppm”.
